In patent publication US5461036A, “Spicamycin derivatives and their use as anticancer agents” (priority 1991, dated 1995):
Like-named read-outs stand apart in the source and are kept apart here.

Legend:
in vivo = assay: in vivo; set-up: species or system nude mice (BALB/c nu/nu); conditions: mouse, in vivo; intravenous, continuous 5 days, nude mice; maximum dose at which no animal was dead within 2 weeks; read-out: Maximum tolerated dose
Protocol: (1) Measurement of maximum tolerated dose (MTD) of the spicamycin derivatives in nude mice
The spicamycin derivative was dissolved in dimethylsulfoxide (DMSO) and Cremophor EL® at the same volume as DMSO was added. Physiological saline was added so that the concentration of DMSO and Cremophor EL® was finally adjusted to 1%, respectively, and thus injection liquids of spicamycin derivative in a variety of concentrations were prepared. […] The maximum dose at which no animal was dead was defined as the MTD of the respective derivatives.

[1] = system: human colon cancer (COL-1); assay type: in vivo, mouse; conditions: for TGIR (tumor growth inhibition rate, maximum) / minTx (relative tumor volume when reduced to the minimum): COL-1 s.c. in nude mice, at MTD; for TGIR (tumor growth inhibition rate, maximum): TGIR=(1-Tx/Cx)×100, maximum during about 3 weeks; for minTx (relative tumor volume when reduced to the minimum): minimum throughout the test period
Protocol: (2) Method for measuring the antitumor effect on human colon cancer (COL-1)
COL-1, a human colon cancer, was transplanted subcutaneously into nude mice. When the tumor had grown to a volume of about 100 mm^3, the nude mice were divided into groups of 5 animals so that the average tumor volumes of respective groups were equalized. The respective spicamycin derivatives were administered to test groups at their MTDs, while physiological saline (solvent) containing 1% DMSO and 1% Cremophor EL® was administered to the control group. […] RV is expressed as RV =Vn/Vo where Vn is the tumor volume on day n and Vo is the initial tumor volume at the time treatment was commenced.

[2] = /minimum effective dose (effective: TGIR≥50)

SMILES | MTD at 336 h (in vivo) | TGIR (tumor growth inhibition rate, maximum) [1] | minTx (relative tumor volume when reduced to the minimum) [1] | Therapeutic index ([1]; mouse, in vivo) | Therapeutic index [1, 2]
O=C(CCCCCCCCC#Cc1cccs1)NCC(=O)NC1C(O)C(O)C(Nc2ncnc3[nH]cnc23)OC1C(O)CO (centres unmarked) [SPK262, 6-{4'-N-[N'-11-(2'-thienyl)-10-undecynoylglycyl]spicaminyl-amino}purine] | 8 mg/kg/day | 99 | 0.03 | 4 | 
CCCCCCCCC/C=C/C=C/C(=O)NCC(=O)NC1C(O)C(O)C(Nc2ncnc3[nH]cnc23)OC1C(O)CO (stereo not drawn) [SPT241, 6-[4 -N-(N'-trans,trans-2,4-tetradecadienylglycyl)-septaminyl-amino]purine] | 3 mg/kg/day | 93 | 0.24 | 8 | 
CCCCCCCCCCC[C@H](O)CC(=O)NCC(=O)NC1C(O)C(O)C(Nc2ncnc3[nH]cnc23)OC1C(O)CO (single isomer, unassigned) [SPK274, 6-[4'-N-(N'-(s)-3-hydroxytetradecanoylglydyl)spicaminyl-amino]purine] | 24 mg/kg/day | 92 | 0.16 | 4 | 
CCCCCCCCCCCCCC[C@H](O)C(=O)NCC(=O)NC1C(O)C(O)C(Nc2ncnc3[nH]cnc23)OC1C(O)CO (stereo partly drawn) [SPK271, 6-[4'-N-(N'-(S)-2-hydroxyhexadecanoylglycyl)spicaminyl-amino]purine] | 2 mg/kg/day | 99 | 0.09 |  | 8
CCCCCC/C=C\CCCCCCCC(=O)NCC(=O)N[C@@H]1[C@@H](O)[C@@H](O)[C@@H](Nc2ncnc3[nH]cnc23)O[C@H]1C(O)CO (stereo partly drawn) [SPK148, 6-[4,-N-(N'-cis-9-hexadecenoylglycyl)spicaminyl-amino]purine] | 3.4 mg/kg/day | 94 | 0.21 |  | 4
C=CCCCCCCCCCCC(=O)NCC(=O)N[C@@H]1[C@@H](O)[C@@H](O)[C@@H](Nc2ncnc3[nH]cnc23)O[C@H]1C(O)CO (some centres unmarked) [SPK142, 6-[4'-N-(N'-12-tridecenoylglycyl)spicaminyl-amino]purine] | 6 mg/kg/day | 99 | 0.09 | 4 | 
CCCCCCCCCCCCCC(O)CC(=O)NCC(=O)NC1C(O)C(O)C(Nc2ncnc3[nH]cnc23)OC1C(O)CO (centres unmarked) [SPK115, 6-[4'-N-(N'-3-hydroxyhexadecanoylglycyl)-spicaminyl-amino]purine] | 3 mg/kg/day | 99 | 0.08 |  | 4
CC(C)CCCCCCCCC(=O)NCC(=O)N[C@@H]1[C@@H](O)[C@@H](O)[C@@H](Nc2ncnc3[nH]cnc23)O[C@H]1C(O)CO (some centres unmarked) [SPK9, 6-[4'-N-(N'-10-methylundecanoylglycyl)spicaminyl-amino]purine] | 6 mg/kg/day | 99 | 0.05 | 4 | 
CCCCCCCCCCCCCCC(O)C(=O)NCC(=O)NC1C(O)C(O)C(Nc2ncnc3[nH]cnc23)OC1C(O)CO (centres unmarked) [SPK112, 6-[4'-N-(N'-2-hydroxyhexadecanoylglycyl)spicaminyl-amino]purine] | 0.85 mg/kg/day | 82 |  |  | 4
CCCCCCC/C=C/C=C/C(=O)NCC(=O)N[C@@H]1[C@@H](O)[C@@H](O)[C@@H](Nc2ncnc3[nH]cnc23)O[C@H]1C(O)CO (stereo partly drawn) [SPK282, 6-[4'-N-(N'-trans,trans-2,4-dodecadienoylglycyl)spicaminyl-amino]purine] | 36 mg/kg/day | 99 | 0.07 | 16 | 
O=C(CCCCCCCCCCI)NCC(=O)NC1C(O)C(O)C(Nc2ncnc3[nH]cnc23)OC1C(O)CO (centres unmarked) [SPK165, 6-[4'-N-(N'-11-iodoundecanoylglycyl)spicaminyl-amino]purine] | 24 mg/kg/day | 86 |  |  | 
CCCCCCCCCCCCC(=O)NCC(=O)N[C@@H]1[C@@H](O)[C@@H](O)[C@@H](Nc2ncnc3[nH]cnc23)O[C@H]1C(O)CO (some centres unmarked) [SPM9, 6-[4 '-N-(N'-tridecanoylglycyl)spicaminyl-amino]purine] | 3.4 mg/kg/day | 99 | 0.05 | 6 | 
O=C(CCCCCCCCCCOc1ccccc1)NCC(=O)NC1C(O)C(O)C(Nc2ncnc3[nH]cnc23)OC1C(O)CO (centres unmarked) [SPK422, 6-[4'-N-(N'-11-phenoxyundecanoylglycyl)-spicaminyl-amino]purine] | 3.4 mg/kg/day | 95 |  | 4 | 
O=C(CCCCCCCCCCCOc1ccccc1)NCC(=O)NC1C(O)C(O)C(Nc2ncnc3[nH]cnc23)OC1C(O)CO (centres unmarked) [SPK249, 6-[4'-N-(N'-12-phenoxydodecanoylglycyl)-spicaminyl-amino]purine] | 3 mg/kg/day | 88 | 0.26 | 4 | 
O=C(CCCCCCCCCCCCCCl)NCC(=O)N[C@@H]1[C@@H](O)[C@@H](O)[C@@H](Nc2ncnc3[nH]cnc23)O[C@H]1C(O)CO (some centres unmarked) [SPK280, 6-[4'-N-(N'-14-chlorotetradecanoylglycyl)spicaminyl-amino]purine] | 9 mg/kg/day | 94 | 0.19 | 8 | 
O=C(CCCCCCCCC#Cc1ccoc1)NCC(=O)NC1C(O)C(O)C(Nc2ncnc3[nH]cnc23)OC1C(O)CO (centres unmarked) [SPK266, 6-{4'-N-[N'-11-(3'-furyl)-10-undecynoylglycyl]spicamynyl-amino}purine] | 12 mg/kg/day | 97 | 0.18 | 8 | 
C=CCCCCCCCCCC(=O)NCC(=O)N[C@@H]1[C@@H](O)[C@@H](O)[C@@H](Nc2ncnc3[nH]cnc23)O[C@H]1C(O)CO (some centres unmarked) [SPK44, 6-[4 '-N-(N'-11-dodecenoylglycyl)spicaminyl-amino]purine] | 4 mg/kg/day | 94 | 0.16 |  | 4
CCCCCCCCCCCCCCC(F)C(=O)NCC(=O)NC1C(O)C(O)C(Nc2ncnc3[nH]cnc23)OC1C(O)CO (centres unmarked) [SPK233, 6-[4'-N-(N'-2-fluorohexadecanoylglycyl)spicaminyl-amino]purine] | 2.7 mg/kg/day | 96 | 0.13 |  | 4
O=C(CCCCCCCCCCCCBr)NCC(=O)N[C@@H]1[C@@H](O)[C@@H](O)[C@@H](Nc2ncnc3[nH]cnc23)O[C@H]1C(O)CO (some centres unmarked) [SPK276, 6-[4'-N-(N'-13-bromotridecanoylglycyl)spicaminyl-amino]purine] | 12 mg/kg/day | 96 | 0.16 | 8 | 
CCCCCCCCCCC[C@@H](O)CC(=O)NCC(=O)NC1C(O)C(O)C(Nc2ncnc3[nH]cnc23)OC1C(O)CO (stereo partly drawn) [SPK270, 6-[4'-N-(N'-(R)-3-hydroxytetradecanoylglycyl)spicaminyl-amino]purine] | 12 mg/kg/day | 94 | 0.21 | 4 | 
CCCCCCCCCCCCCC(CC(=O)NCC(=O)NC1C(O)C(O)C(Nc2ncnc3[nH]cnc23)OC1C(O)CO)OC(C)=O (centres unmarked) [SPK189, 6-[4'-N-(N'-3-acetoxyhexadecanoylglycyl)-spicaminyl-amino]purine] | 6 mg/kg/day | 98 | 0.09 | 4 | 
CCCC/C=C\CCCCCCCC(=O)NCC(=O)N[C@@H]1[C@@H](O)[C@@H](O)[C@@H](Nc2ncnc3[nH]cnc23)O[C@H]1C(O)CO (stereo partly drawn) [SPK231, 6-[4,-N-(N'-cis-9-tetradecenoylglycyl)spicaminyl-amino]purine] | 6 mg/kg/day | 96 | 0.12 | 6 | 
CCCCCCCCC/C=C/C(=O)NCC(=O)N[C@@H]1[C@@H](O)[C@@H](O)[C@@H](Nc2ncnc3[nH]cnc23)O[C@H]1C(O)CO (stereo partly drawn) [SPK86, 6-[4'-N-(N'-trans-2-dodecenoylglycyl)spicaminyl-amino]purine] | 18 mg/kg/day | 86 |  |  | 
CC(C)CCCCCCCCCC(=O)NCC(=O)N[C@@H]1[C@@H](O)[C@@H](O)[C@@H](Nc2ncnc3[nH]cnc23)O[C@H]1C(O)CO (some centres unmarked) [SPK251, 6-[4'-N-(N'-11-methyldodecanoylglycyl)spicaminyl-amino]purine] | 6 mg/kg/day | 97 |  | 8 | 
